From patent US9840501B2, “Morpholin-pyridine derivatives” (Hoffmann-La Roche Inc., priority 2014, dated 2017) come the findings set out here.

As usually defined, the Kd is the constant that tells how readily two partners part at equilibrium.

One experiment concerns the target mouse TAAR1 (Mus musculus (Mouse), UniProt Q923Y8). The experiment can be described thus: Radioligand binding assay on mouse TAAR1. To be noted: for Ki: mouse TAAR1, membranes of stably transfected HEK-293 cells, first value of the pair, read-out: Ki (μM) mouse/rat: mouse. In a few lines: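 Membranes from HEK293 cells stably expressing mouse TAAR1, in 20 mM HEPES-NaOH pH 7.4 with 0.1 mM EDTA, incubated 1 h at 4 °C with ^3[H]-(S)-4-[(ethyl-phenyl-amino)-methyl]-4,5-dihydro-oxazol-2-ylamine and compounds (10 pM to 10 μM, duplicates). Nonspecific binding with 10 μM unlabeled ligand; bound radioactivity counted after filtration.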

The next experiment has as its target rat TAAR1 (Rattus norvegicus (Rat), UniProt Q923Y9). The experiment can be described thus: Radioligand binding assay on rat TAAR1. To be noted: for Ki: rat TAAR1, membranes of stably transfected HEK-293 cells, second value of the pair, read-out: Ki (μM) mouse/rat: rat. The method in brief: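 Membranes from HEK293 cells stably expressing rat TAAR1, in 20 mM HEPES-NaOH pH 7.4; displacement of 3[H]-(S)-4-[(ethyl-phenyl-amino)-methyl]-4,5-dihydro-oxazol-2-ylamine, nonspecific binding with 10 μM unlabeled ligand. Compounds 10 pM to 10 μM in duplicate, 1 h at 4 °C, filtration and scintillation counting.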

Sequence of rat TAAR1 (Q923Y9 whole entry): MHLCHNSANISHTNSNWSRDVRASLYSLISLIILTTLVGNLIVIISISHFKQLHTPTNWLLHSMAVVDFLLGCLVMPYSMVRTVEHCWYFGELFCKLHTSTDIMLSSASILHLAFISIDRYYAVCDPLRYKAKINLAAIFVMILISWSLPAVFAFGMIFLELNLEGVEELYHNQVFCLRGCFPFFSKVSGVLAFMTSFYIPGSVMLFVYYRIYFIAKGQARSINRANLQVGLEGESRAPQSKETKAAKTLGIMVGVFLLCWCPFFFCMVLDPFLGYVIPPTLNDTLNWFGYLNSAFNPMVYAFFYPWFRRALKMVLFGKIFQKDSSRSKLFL
Sequence of mouse TAAR1 (Q923Y8 whole entry): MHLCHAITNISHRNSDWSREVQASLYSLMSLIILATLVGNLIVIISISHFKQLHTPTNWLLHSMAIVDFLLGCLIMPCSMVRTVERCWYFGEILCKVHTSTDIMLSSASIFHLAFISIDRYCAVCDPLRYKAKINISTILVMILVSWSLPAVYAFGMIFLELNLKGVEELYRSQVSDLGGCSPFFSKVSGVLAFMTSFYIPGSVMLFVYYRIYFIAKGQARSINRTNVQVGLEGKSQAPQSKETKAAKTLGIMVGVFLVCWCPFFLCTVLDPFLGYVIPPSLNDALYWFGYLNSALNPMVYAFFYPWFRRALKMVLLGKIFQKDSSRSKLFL

On to `O=C(Nc1ccc([C@H]2CNCCO2)nc1)c1ccc(C(F)(F)F)cc1` [Example 53, N-[6-[(2R)-Morpholin-2-yl]-3-pyridyl]-4-(trifluoromethyl)benzamide], for which the Ki at mouse TAAR1 was found to be 0.0061 µM; on rat TAAR1, 0.0718 µM.
With `O=C(Nc1ccc([C@@H]2CNCCO2)nc1)c1cccc(C(F)(F)F)c1` [Example 35, N-[6-[(2S)-Morpholin-2-yl]-3-pyridyl]-3-(trifluoromethyl)benzamide], the Ki at mouse TAAR1 stood at 0.0056 µM; on rat TAAR1, 0.0107 µM.
Turning to `Cc1n[nH]c(C(=O)Nc2ccc([C@H]3CNCCO3)nc2)c1Cl` [Example 64, 4-Chloro-3-methyl-N-[6-[(2R)-morpholin-2-yl]-3-pyridyl]-1H-pyrazole-5-carboxamide], the values for the Ki at mouse TAAR1 and at rat TAAR1 were 0.018 µM and 1.57 µM, respectively.
With `CC(C)n1nc(OCC(F)(F)F)cc1C(=O)Nc1ccc([C@H]2CNCCO2)nc1` [Example 99, 2-Isopropyl-N-[6-[(2R)-morpholin-2-yl]-3-pyridyl]-5-(2,2,2-trifluoroethoxy)pyrazole-3-carboxamide], the values for the Ki on mouse TAAR1 and on rat TAAR1 were 0.0242 µM and 0.0041 µM, respectively.
For `O=C(Nc1ccc([C@@H]2CNCCO2)nc1)c1ccc(C(F)(F)F)cc1` [Example 33, N-[6-[(2S)-Morpholin-2-yl]-3-pyridyl]-4-(trifluoromethyl)benzamide], the Ki on mouse TAAR1 was 0.0056 µM; on rat TAAR1, 0.052 µM.
In the case of `Cc1cc(NC(=O)c2ccnc(C(F)(F)F)c2)cnc1C1CNCCO1` (racemic) [Example 117, (RS)—N-(5-Methyl-6-morpholin-2-yl-3-pyridyl)-2-(trifluoromethyl)pyridine-4-carboxamide], the Ki at mouse TAAR1 came to 0.464 µM; at rat TAAR1 it was 1.41 µM.
As to `CCCc1n[nH]c(C(=O)Nc2ccc([C@H]3CNCCO3)nc2)c1Cl` [Example 59, 4-Chloro-N-[6-[(2R)-morpholin-2-yl]-3-pyridyl]-3-propyl-1H-pyrazole-5-carboxamide], the Ki on mouse TAAR1 stood at 0.0063 µM; on rat TAAR1, 0.021 µM.
As for `CC(C)c1cc(C(=O)Nc2ccc([C@@H]3CNCCO3)nc2)[nH]n1` [Example 38, 3-Isopropyl-N-[6-[(2S)-morpholin-2-yl]-3-pyridyl]-1H-pyrazole-5-carboxamide], the Ki at mouse TAAR1 is 0.0263 µM; on rat TAAR1, 0.0727 µM.
With `Clc1ccc(Nc2ccc([C@H]3CNCCO3)nc2)cc1` [Example 24, N-(4-Chlorophenyl)-6-[(2R)-morpholin-2-yl]pyridin-3-amine], the Ki on mouse TAAR1 is 0.0124 µM; on rat TAAR1 it was 0.182 µM.
The like results for `CCCCc1cc(C(=O)Nc2ccc([C@@H]3CNCCO3)nc2)[nH]n1` [Example 91, 3-Butyl-N-[6-[(2S)-morpholin-2-yl]-3-pyridyl]-1H-pyrazole-5-carboxamide] were, in that order, 0.0031 µM and 0.0061 µM.
In the case of `CCN(C[C@H]1COC(N)=N1)c1ccccc1` [^3[H]—(S)-4-[(ethyl-phenyl-amino)-methyl]-4,5-dihydro-oxazol-2-ylamine, reference compound], the Kd is around 0.7 nM at mouse TAAR1 (mouse TAAR1 membranes, saturation curve, usual value per membrane batch, read-out: dissociation constant (Kd) of the radioligand) and around 2.3 nM at rat TAAR1 (rat TAAR1 membranes, saturation curve, usual value per membrane batch, read-out: dissociation constant (Kd) of the radioligand).
For the molecule `O=C(Nc1cnc(C2CNCCO2)nc1)c1ccc(Cl)cc1` (racemic) [Example 72, (RS)-4-Chloro-N-(2-morpholin-2-ylpyrimidin-5-yl)benzamide], the Ki on mouse TAAR1 amounted to 0.0058 µM; on rat TAAR1, 4.93 µM.
In the case of `CC(C)c1cc(C(=O)Nc2ccc([C@@H]3CNCCO3)nc2)n(CC(F)(F)F)n1` [Example 92, 5-Isopropyl-N-[6-[(2S)-morpholin-2-yl]-3-pyridyl]-2-(2,2,2-trifluoroethyl)pyrazole-3-carboxamide], the Ki worked out at 0.262 µM on mouse TAAR1 and 0.0597 µM on rat TAAR1.
The like results for `Clc1ccc(Nc2cnc(C3CNCCO3)c(Cl)c2)nc1` (racemic) [Example 102, (RS)-5-Chloro-N-(5-chloro-2-pyridyl)-6-morpholin-2-yl-pyridin-3-amine] were, in that order, 0.178 µM and 0.461 µM.
On to `Cc1cn[nH]c1C(=O)Nc1ccc([C@@H]2CNCCO2)nc1` [Example 45, 4-Methyl-N-[6-[(2S)-morpholin-2-yl]-3-pyridyl]-1H-pyrazole-5-carboxamide], for which the results for the Ki on mouse TAAR1 and at rat TAAR1 were 0.162 µM and 1.13 µM, respectively.
In the case of `CCc1ncc(C(=O)Nc2ccc([C@@H]3CNCCO3)nc2)cn1` [Example 37, 2-Ethyl-N-[6-[(2S)-morpholin-2-yl]-3-pyridyl]pyrimidine-5-carboxamide], the Ki worked out at 0.139 µM at mouse TAAR1 and 1.47 µM at rat TAAR1.
In the case of `O=C(Nc1ccc(Cl)cc1)Nc1ccc(C2CNCCO2)nc1` (racemic) [Example 11, (RS)-1-(4-Chlorophenyl)-3-(6-morpholin-2-yl-3-pyridyl)urea], the Ki on mouse TAAR1 stood at 0.0038 µM; on rat TAAR1, 0.0047 µM.
The corresponding values for `O=C(Nc1ccc([C@@H]2CNCCO2)nc1)c1[nH]nc(C2CC2)c1Cl` [Example 40, 4-Chloro-3-cyclopropyl-N-[6-[(2S)-morpholin-2-yl]-3-pyridyl]-1H-pyrazole-5-carboxamide] are 0.0089 µM and 0.0428 µM.
With `CC(C)c1cc(C(=O)Nc2ccc([C@H]3CNCCO3)nc2)n(CC(F)(F)F)n1` [Example 98, 5-Isopropyl-N-[6-[(2R)-morpholin-2-yl]-3-pyridyl]-2-(2,2,2-trifluoroethyl)pyrazole-3-carboxamide], the Ki on mouse TAAR1 is 0.24 µM; on rat TAAR1 it was 0.0442 µM.
Consider `CC(C)c1n[nH]c(C(=O)Nc2ccc([C@@H]3CNCCO3)nc2)c1F` [Example 121, 4-Fluoro-3-isopropyl-N-[6-[(2S)-morpholin-2-yl]-3-pyridyl]-1H-pyrazole-5-carboxamide], for which the Ki on mouse TAAR1 was determined as 0.0239 µM; at rat TAAR1, 0.0954 µM.
As to `Cc1cc(C(=O)Nc2ccc([C@@H]3CNCCO3)nc2)nc(C(F)(F)F)n1` [Example 69, (S)-6-Methyl-N-(6-(morpholin-2-yl)pyridin-3-yl)-2-(trifluoromethyl)pyrimidine-4-carboxamide], the results for the Ki on mouse TAAR1 and at rat TAAR1 were 0.0762 µM and 0.0512 µM, respectively.
The like results for `CCCCc1n[nH]c(C(=O)Nc2ccc([C@H]3CNCCO3)nc2)c1F` [Example 96, 3-Butyl-4-fluoro-N-[6-[(2R)-morpholin-2-yl]-3-pyridyl]-1H-pyrazole-5-carboxamide] were, in that order, 0.0035 µM and 0.0554 µM.
`O=C(Nc1ccc([C@@H]2CNCCO2)nc1)c1ccc(OCC(F)(F)F)nc1` [Example 36, N-[6-[(2S)-Morpholin-2-yl]-3-pyridyl]-6-(2,2,2-trifluoroethoxy)pyridine-3-carboxamide]: the Ki at mouse TAAR1 worked out at 0.0066 µM; at rat TAAR1 it was 0.0278 µM.
For `CCCc1c(Cl)c(C(=O)Nc2ccc([C@H]3CNCCO3)nc2)nn1C` [Example 48, 4-Chloro-1-methyl-N-[6-[(2R)-morpholin-2-yl]-3-pyridyl]-5-propyl-pyrazole-3-carboxamide], the Ki on mouse TAAR1 came out at 0.0199 µM; at rat TAAR1, 1.37 µM.
For the molecule `O=C(Nc1ccc([C@@H]2CNCCO2)nc1)Nc1cccc(C(F)(F)F)c1` [Example 42, 1-[6-[(2S)-Morpholin-2-yl]-3-pyridyl]-3-[3-(trifluoromethyl)phenyl]urea], the values for the Ki on mouse TAAR1 and at rat TAAR1 were 0.0038 µM and 0.003 µM, respectively.
As for `FC(F)(F)c1cccc(Nc2ccc([C@H]3CNCCO3)nc2)n1` [Example 50, N-[6-[(2R)-Morpholin-2-yl]-3-pyridyl]-6-(trifluoromethyl)pyridin-2-amine], the Ki at mouse TAAR1 came out at 0.005 µM; on rat TAAR1, 0.122 µM.
`Brc1ccc(Nc2ccc([C@H]3CNCCO3)nc2)nc1` [Example 47, N-(5-Bromo-2-pyridyl)-6-[(2R)-morpholin-2-yl]pyridin-3-amine]: the Ki was found to be 0.0039 µM at mouse TAAR1 and 0.165 µM on rat TAAR1.
With `CCCc1n[nH]c(C(=O)Nc2ccc([C@@H]3CNCCO3)nc2)c1F` [Example 79, 4-Fluoro-N-[6-[(2S)-morpholin-2-yl]-3-pyridyl]-3-propyl-1H-pyrazole-5-carboxamide], the Ki was 0.0074 µM on mouse TAAR1 and 0.0568 µM on rat TAAR1.
`FC(F)(F)c1ccc(Nc2ccc([C@@H]3CNCCO3)nc2)cn1` [Example 22, 6-[(2S)-Morpholin-2-yl]-N-[6-(trifluoromethyl)-3-pyridyl]pyridin-3-amine]: the values for the Ki on mouse TAAR1 and at rat TAAR1 were 0.0126 µM and 0.247 µM, respectively.
As to `CCc1n[nH]c(C(=O)Nc2ccc([C@@H]3CNCCO3)nc2)c1C` [Example 67, (S)-3-Ethyl-4-methyl-N-(6-(morpholin-2-yl)pyridin-3-yl)-1H-pyrazole-5-carboxamide], the Ki on mouse TAAR1 came to 0.0147 µM; at rat TAAR1, 0.27 µM.
As to `O=C(Nc1ccc([C@@H]2CNCCO2)nc1)c1[nH]nc(C(F)(F)F)c1Cl` [Example 43, 4-Chloro-N-[6-[(2S)-morpholin-2-yl]-3-pyridyl]-3-(trifluoromethyl)-1H-pyrazole-5-carboxamide], the Ki at mouse TAAR1 was 0.0474 µM; on rat TAAR1, 0.0838 µM.
As for `CC(C)c1n[nH]c(C(=O)Nc2ccc([C@@H]3CNCCO3)nc2)c1Cl` [Example 120, 4-Chloro-3-isopropyl-N-[6-[(2S)-morpholin-2-yl]-3-pyridyl]-1H-pyrazole-5-carboxamide], the Ki worked out at 0.0311 µM at mouse TAAR1 and 0.0203 µM on rat TAAR1.
As to `O=C(Nc1cccc(Cl)c1)Nc1cnc(C2CNCCO2)c(F)c1` (racemic) [Example 112, (RS)-1-(3-Chlorophenyl)-3-(5-fluoro-6-morpholin-2-yl-3-pyridyl)urea], the Ki worked out at 0.0102 µM at mouse TAAR1 and 0.0286 µM at rat TAAR1.
